One compound from publication PMC5695821, “Pharmacological inhibition of RORγt suppresses the Th17 pathway and alleviates arthritis in vivo” (PLoS ONE, 2017) can be followed below.

The target of this assay is T1, RORγt (Homo sapiens, UniProt P51449).
T1 construct: gene RORC; LBD, amino acids 264–518, His6-tagged
T1 sequence (P51449 264-518): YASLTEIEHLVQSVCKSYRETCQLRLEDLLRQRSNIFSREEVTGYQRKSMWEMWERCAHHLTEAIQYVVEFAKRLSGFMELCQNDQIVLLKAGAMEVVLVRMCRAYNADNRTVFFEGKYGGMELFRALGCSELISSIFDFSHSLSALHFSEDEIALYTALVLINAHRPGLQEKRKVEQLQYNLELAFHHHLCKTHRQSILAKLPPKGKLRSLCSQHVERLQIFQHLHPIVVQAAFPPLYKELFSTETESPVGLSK
Description: TR-FRET displacement of RIP140 co-activator peptide from purified RORγt-LBD; supported by DSLS thermal shift (ΔTagg […] °C). Type of assay: binding. In general terms: In TR-FRET formats the signal depends on donor and acceptor labels being close together.

Usually IC50 stands for the concentration that gives 50% inhibition. Consider `Cc1ncc(C(=O)Nc2cn3ccnc3c(CN3CCN(C(=O)C4CCCC4)[C@@H](C)C3)c2C)cn1` [compound 1, (S)-N-(8-((4-(cyclopentanecarbonyl)-3-methylpiperazin-1-yl)methyl)-7-methylimidazo[1,2-a]pyridin-6-yl)-2-methylpyrimidine-5-carboxamide], for which the IC50 came to 19 nM.
